Patent US10537548B2, “Composition and medical product for reducing body weight and body fat, and use of said product” (Caliway Biopharmaceuticals Co., Ltd., priority 2014, dated 2020)

Experiment: Animal Experiment I, drug administration during obesity induction (high-fat diet)
Assay type: in vivo, B6 female mice
Settings: oral gavage daily, 8 weeks, compared to obesity control group
Experimental: In this experimental example, 8-week old B6 female mice were experimented and divided into a normal control group, an obesity control group, a resveratrol group (the administered dose of resveratrol was 61.5 mg/kg B.W.), a green tea extract group (the administered dose of green tea extract was 123 mg/kg B.W.), and the plant extract compositions ME001 of the present invention group (the administered dose of ME001 was 676.5 mg/kg B.W.) Five female mice were included in each group for experimentation. During the experimental period, with the exception of the normal control group, the other groups were fed with high-fat diet for eight consecutive weeks to induce obesity symptoms, and were also fed by oral gavage with the test substance daily during the same eight weeks. The obesity control group was fed by oral gavage with an equal volume of sterile water, and the difference in body weight of each group of mice was evaluated. The body weight and average food intake of each animal were recorded weekly during the experimental period. The mice were sacrificed after the experimentation. […] The data of each group are expressed as mean±SD. Letters a, b, and c indicate the results of statistical analysis, wherein different letters indicate significant statistical difference between groups (p<0.05), and identical letters indicate no significant statistical difference between groups (p>0.05).

Oc1ccc(C=Cc2cc(O)cc(O)c2)cc1 [resveratrol]
total body weight gain: did not show statistical difference
